# Patent US10624948B2, “Use of cell-permeable peptide inhibitors of the JNK signal transduction pathway for the treatment of various diseases” (Xigen Inflammation Ltd., priority 2013, dated 2020)
# Where two headings read alike, the source gives them in different places.
# Columns and labels:
# [1] = system: Brown Norway rats, STZ-induced diabetic retinopathy; assay: Diabetic retinopathy prevention study in STZ treated rat (IVT); assay type: in vivo
# Description: The objective of this study was to determine the ability of XG-102 to prevent diabetic retinopathy when administered by intravitreal injections to streptozotocin (STZ)-treated (hyperglycemic) rats.
# All animals from Groups 2, 3, 4 received a 55 mg/kg intravenous (IV) dose of STZ on Day −7.
# Test items or reference item were administered by intravitreal injection to the left and right eyes of each animal on Days 1, 8 and 15 as indicated in the Experimental Design table. The animals were anesthetized (isoflurane) for the dose administration, which was performed by a board-certified veterinary ophthalmologist. Topical antibiotics (gentamicin ophthalmic solution) were applied to both eyes twice on the day before treatment, following the injection and at least once on the day following the injection. Prior to dosing, mydriatic drops (1% tropicamide and/or 2.5% phenylephrine) were applied to each eye (further applications were performed when considered appropriate by the veterinary ophthalmologist). During dosing, animals were maintained under anesthesia with isoflurane/oxygen gas. The conjunctivae were flushed with 0.9% Sodium Chloride for Injection USP. A 10 μl Hamilton syringe with 32-gauge, ½-inch needle was used for each intravitreal injection (one syringe/group/treatment). The dose volume was 5 μL/eye. Both eyes were examined by slit-lamp biomicroscopy and/or indirect ophthalmoscopy immediately following each treatment to document any abnormalities (especially to the lens, vitreous and retina) caused by the administration procedure. […]
# The in-life procedures, observations, and measurements listed below were performed for study animals. […] Food consumption was quantitatively measured weekly starting during the last week of the pretreatment period. […] Intraocular pressure was measured following each ophthalmology examination, once prestudy and on Day 22, using a TonoVet™ rebound tonometer. The pre-treatment tonometry readings were performed at the same times as anticipated for the final measurements to reduce diurnal variability. […]
# [2] = Phase II trial, safety and tolerability (adverse events)
# Description: The criteria for evaluation of safety were:
# An AE is therefore any unfavorable and unintended sign, symptom or disease temporally associated with the use of a medicinal product, whether or not considered related to the medicinal product.
# Patients were analyzed as treated, i.e. according to the treatment which they received. The safety set was the primary analysis set for the safety analysis.
# The present study was a double-blind study. All patients who were randomized and for whom the sub-conjunctival injection was started are included in the safety analysis by dose group. […] If the study treatment eye drops were stopped prematurely (i.e. before day 21), the patients concerned continued follow-up until day 28, in accordance with the study protocol.
# Investigators assessed (in a blinded manner) the relationship of each reported AE to any of the study treatments. An event was considered to be related to study treatment if the Investigator ticked either ‘possible’ or ‘probable’ as the reply to this question.
# [3] = system: Sprague-Dawley albino rats, light-induced photoreceptor cell death; assay type: in vivo
# Description: The aim of this study was to investigate the dose effect of XG-102 on light-induced photoreceptor cell death.
# Test item (XG-102: 30 mg/ml, 3 mg/ml, and 0.3 mg/ml) and vehicle (0.9% NaCl) were administered by intravitreal injection in right eyes the day before induction. The reference (Phenyl-N-test-Butylnitrone (PBN) (50 mg/kg)) and vehicle were intraperitoneally injected 30 min before induction then, 3 times during 12 hours of light exposition, then once after induction. Animals were placed in constant light (7000 lux) for 24 h. Electroretinograms (ERG) were recorded before light treatment and on days 9, 16 and 23 after induction. Eyes were then taken for histology and outer nuclear layer (ONL) thickness assessment. The table below summarizes the allocation of animals in treatment groups:
# For the intravitreal injection animals were anesthetized by intramuscular injection of a mixture of xylazine/ketamine. Test item (5 μl) and vehicle (5 μl) were injected in the right eye. The injection was performed under an operating microscope in the supratemporal area at pars plana using a 33G-needle mounted on a 50 μl Hamilton. The filled syringe was mounted into the UltraMicroPump III to achieve accurate injection in microliter range. Reference and vehicle were injected intraperitoneally at a dose volume of 2.5 ml/kg using a 30G-needle mounted on a 1 ml-syringe.
# Light Exposure: The rats that had been dark-adapted overnight were exposed for 24 hours to a continuous white fluorescent light (7000 lx) in clear plastic cages. Each cage contained one rat. After exposure, the rats returned to rearing cyclic light conditions.
# ERG was recorded before induction and 7, 14 and 21 days after cessation of exposure (Days 9, 16 and 23) on right eyes of dark-adapted and anesthezied animals. The latency times (for a- and b-wave) and the a-wave and b-wave amplitudes were measured for each ERG; the latency times were expressed as millisecond and the a-wave and b-wave as a percentage of the baseline value obtained before light exposure. 15 min before measurement 10 μl Mydriaticum® (0.5% tropicamide) were instilled for pupillary dilatation.
# Measurement of the ONL Thickness: After ERG testing, animal was euthanized by an overdose of pentobarbital and the right eyes were enucleated, fixed and embedded in paraffin. Sections (5 μm thick) were performed along the vertical meridian and stained with Trichrome-Masson. The vertical meridian included the optic nerve.
smiles,measurement,setting,value
CC(C)C[C@@H](NC(=O)[C@@H](Cc1ccccc1)NC(=O)[C@H]1CCCN1C(=O)[C@@H](CCC(N)=O)NC(=O)[C@H](NC(=O)[C@H]1CCCN1C(=O)[C@@H](CCCNC(=N)N)NC(=O)[C@@H](CO)NC(=O)[C@@H](CCC(N)=O)NC(=O)[C@H](N)CC(=O)O)C(C)C)C(=O)N[C@H](CC(N)=O)C(=O)N[C@H](CC(C)C)C(=O)N[C@@H](C(=O)N[C@@H](C(=O)N1CCC[C@@H]1C(=O)N[C@H](CCCNC(=N)N)C(=O)N[C@H](CCCCN)C(=O)N1CCC[C@@H]1C(=O)N[C@H](CCCNC(=N)N)C(=O)N1CCC[C@@H]1C(=O)N1CCC[C@@H]1C(=O)N[C@H](CCCNC(=N)N)C(=O)N[C@H](CCCNC(=N)N)C(=O)N[C@H](CCCNC(=N)N)C(=O)N[C@H](CCC(N)=O)C(=O)N[C@H](CCCNC(=N)N)C(=O)N[C@H](CCCNC(=N)N)C(=O)N[C@H](CCCCN)C(=O)N[C@H](CCCCN)C(=O)N[C@H](CCCNC(=N)N)C(=O)NCC(=O)O)[C@H](C)O)[C@H](C)O [XG-102],mortality,"[1]; IVT Days 1, 8, 15",no XG-102-related deaths
same,"ERG wave amplitude, overall","[1]; rat, in vivo",tendency for XG-102 to reverse the decrease of the wave amplitude
same,ERG latencies,[1]; ≤2 μg/eye,comparable and remained within the control and/or pretreatment variation
same,patients with Intraocular pressure increased,[2]; XG-102 90 μg,23%
same,percentage of patients who experienced an AE within 24 hours,[2]; XG-102 90 μg,34%
same,overall tolerability,[2]; XG-102 90 μg and 900 μg,well tolerated in patients who underwent complex ocular surgery
same,Adverse events which led to an interruption of study treatment,[2]; XG-102 90 μg dose group,11 (14.1%) number of events (%)
same,patients with Intraocular pressure increased,[2]; XG-102 900 μg,10%
same,percentage of patients who experienced an AE within 24 hours,[2]; XG-102 900 μg,27%
same,Adverse events which led to an interruption of study treatment,[2]; XG-102 900 μg dose group,8 (11.6%) number of events (%)
same,"ERG A-wave amplitude, percent of the baseline, Mean ± SD","[3]; XG-102 ivt 15 μg/eye, Day 23",41.8 ± 23.6%
same,"ERG B-wave amplitude, percent of the baseline, Mean ± SD","[3]; XG-102 ivt 15 μg/eye, Day 23",56.5 ± 29.8%
same,"ERG A-wave amplitude, percent of the baseline, Mean ± SD","[3]; XG-102 ivt 150 μg/eye, Day 9",23.6 ± 25.3%
same,"ERG B-wave amplitude, percent of the baseline, Mean ± SD","[3]; XG-102 ivt 150 μg/eye, Day 9",31.9 ± 42.6%
same,"ERG A-wave amplitude, percent of the baseline, Mean ± SD","[3]; XG-102 ivt 150 μg/eye, Day 16",24.1 ± 28.1%
same,"ERG B-wave amplitude, percent of the baseline, Mean ± SD","[3]; XG-102 ivt 150 μg/eye, Day 16",38.9 ± 51.5%
same,"ERG A-wave amplitude, percent of the baseline, Mean ± SD","[3]; XG-102 ivt 150 μg/eye, Day 23",23.7 ± 27.2%
same,"ERG B-wave amplitude, percent of the baseline, Mean ± SD","[3]; XG-102 ivt 150 μg/eye, Day 23",37.1 ± 54.4%
